Where “and” joins values, the source holds several entries; their conditions need not be identical. Equal entries are not always repeated.
What was measured:
Assay in all cases: Greenhouse postemergence herbicidal safening trial, visual injury after 20-22 d
[1] = system: Canada thistle (CIRAR); format: in vivo, Cirsium arvense
Excerpt: (§1) Greenhouse Trial Methodology—Evaluation of Postemergence Herbicidal Safening in Crops
(§2) Seeds of the desired test plant species were planted in a 90:10% v/v (volume/volume) mixture of PRO-MIX® BX (Premier Tech Horticulture, Quakertown, PA, USA) and PROFILE® GREENS GRADE™ (Profile Products LLC, Buffalo Grove, IL, USA) planting mixture, which typically has a pH of 5.2 to 6.2 and an organic matter content of at least 50 percent, in plastic pots with a surface area of 103.2 square centimeters (cm^2). When required to ensure good germination and healthy plants, a fungicide treatment and/or other chemical or physical treatment was applied. The plants were grown for 7-36 days (d) in a greenhouse with an approximate 14-hour (h) photo-period which was maintained at about 23° C. during the day and 22° C. during the night. Nutrients and water were added on a regular basis and supplemental lighting was provided with overhead metal halide 1000-Watt lamps as necessary. The plants were employed for testing when they reached the second or third true leaf stage.
(§3) Emulsifiable concentrates of each of each pyridine carboxylate herbicide (Compound A or Compound B) were prepared at 100 grams acid equivalent per liter (g ae/L). An aliquot of each emulsifiable concentrate was placed in a 25 mL glass vial and diluted with an aqueous mixture of 1.25% (v/v) ACTIROB® B esterified rapeseed oil (Bayer Crop Science, Research Triangle Park, NC, USA) or MSO® Concentrate with LECI-TECH® methylated soybean oil (Loveland Products, Loveland, CO, USA) to obtain concentrated stock solutions at the highest application rate for each herbicide, based upon a 12 milliliter (mL) application volume at a rate of 187 liters per hectare (L/ha). The concentrated stock solutions were further diluted with an aqueous mixture of 1.25% v/v ACTIROB® B or MSO® Concentrate with LECI-TECH® to obtain stock solutions at reduced application rates for each herbicide. Spray solutions of the herbicide combinations (Compound A or Compound B plus safener) were prepared by adding weighed amounts or aliquots of the azole carboxylate safener to the stock solutions of Compound A or Compound B to form 12-mL spray solutions in two-way combinations.
(§4) The spray solutions were applied to the plant material with an overhead Mandel track sprayer equipped with 8002E nozzles calibrated to deliver 187 L/ha over an application area of 0.503 square meters (m^2) at a spray height of 18 inches (43 centimeters (cm)) above the average plant canopy. Control plants were sprayed in the same manner with the solvent blank. All herbicide (component a) application rates are given as “g ae/ha” and all safener (component b) application rates are given as “g ai/ha.”
(§5) The treated plants and control plants were placed in a greenhouse as described above and watered by sub-irrigation to prevent wash-off of the test compounds. After 20-22 d, the condition of the test plants as compared with that of the control plants was determined visually and scored on a scale of 0 to 100 percent where 0 corresponds to no injury and 100 corresponds to complete kill.

[2] = system: Chinese sprangletop (LEFCH); format: in vivo, Leptochloa chinensis
Excerpt: as §1, §2, §3, §4, §5

[3] = system: Russian thistle (SASKR); format: in vivo, Salsola kali; conditions: applied alone
Excerpt: as §1, §2, §3, §4, §5

[4] = system: barnyardgrass (ECHCG); format: in vivo, Echinochloa crus-galli
Excerpt: as §1, §2, §3, §4, §5

[5] = system: Canada horseweed (ERICA); format: in vivo, Erigeron canadensis
Excerpt: as §1, §2, §3, §4, §5

[6] = system: Italian ryegrass (LOLMU); format: in vivo, Lolium multiflorum
Excerpt: as §1, §2, §3, §4, §5

[7] = system: common rice (ORYSA); format: in vivo, Oryza sativa
Excerpt: as §1, §2, §3, §4, §5

[8] = system: common sunflower (HELAN); format: in vivo, Helianthus annuus
Excerpt: as §1, §2, §3, §4, §5

[9] = system: kochia (KCHSC); format: in vivo, Kochia scoparia
Excerpt: as §1, §2, §3, §4, §5

[10] = system: herbicide-resistant kochia (KCHSC-R); format: in vivo, Kochia scoparia
Excerpt: as §1, §2, §3, §4, §5

[11] = system: pigweed (AMARE); format: in vivo, Amaranthus retroflexus
Excerpt: as §1, §2, §3, §4, §5

[12] = system: velvetleaf (ABUTH); format: in vivo, Abutilon theophrasti
Excerpt: as §1, §2, §3, §4, §5

[13] = system: giant foxtail (SETFA); format: in vivo, Setaria faberi
Excerpt: as §1, §2, §3, §4, §5

[14] = system: wild oat (AVEFA); format: in vivo, Avena fatua
Excerpt: as §1, §2, §3, §4, §5

[15] = system: wild pansy (VIOTR); format: in vivo, Viola tricolor
Excerpt: as §1, §2, §3, §4, §5

[16] = system: Johnson grass (SORHA); format: in vivo, Sorghum halepense
Excerpt: as §1, §2, §3, §4, §5

[17] = system: nutsedge (CYPES); format: in vivo, Cyperus esculentus
Excerpt: as §1, §2, §3, §4, §5

[18] = system: wild chamomile (MATCH); format: in vivo, Matricaria chamomilla; conditions: applied alone
Excerpt: as §1, §2, §3, §4, §5

[19] = system: winter rape (BRSNW); format: in vivo, Brassica napus
Excerpt: as §1, §2, §3, §4, §5

[20] = system: ivyleaf morningglory (IPOHE); format: in vivo, Ipomoea hederacea
Excerpt: as §1, §2, §3, §4, §5

[21] = system: blackgrass (ALOMY); format: in vivo, Alopecurus myosuroides
Excerpt: as §1, §2, §3, §4, §5

[22] = system: spring wheat (TRZAS); format: in vivo, Triticum aestivum; conditions: applied alone
Excerpt: as §1, §2, §3, §4, §5

[23] = system: winter wheat (TRZAW); format: in vivo, Triticum aestivum
Excerpt: as §1, §2, §3, §4, §5

[24] = system: maize (ZEAMX); format: in vivo, Zea mays
Excerpt: as §1, §2, §3, §4, §5

[25] = system: common lambsquarters (CHEAL); format: in vivo, Chenopodium album L.
Excerpt: as §1, §2, §3, §4, §5

[26] = system: large crabgrass (DIGSA); format: in vivo, Digitaria sanguinalis
Excerpt: as §1, §2, §3, §4, §5

[27] = system: wild buckwheat (POLCO); format: in vivo, Polygonum convolvulus
Excerpt: as §1, §2, §3, §4, §5

[28] = system: soybean (GLXMA); format: in vivo, Glycine max
Excerpt: as §1, §2, §3, §4, §5

[29] = system: spring barley (HORVS); format: in vivo, Hordeum vulgare; conditions: applied alone
Excerpt: as §1, §2, §3, §4, §5

Compound: N#CCOC(=O)c1nc(-c2ccc3cc[nH]c3c2F)c(F)c(N)c1Cl [Compound A, cyanomethyl 4-amino-3-chloro-5-fluoro-6-(7-fluoro-1H-indol-6-yl)pyridine-2-carboxylate]
- % visual injury Ob ([1]; Compound A 20 g/ha): 95%
- % visual injury Ob ([1]; applied alone, 20 g/ha): 95%
- % visual injury Ob ([2]; Compound A 20 g/ha): 60%
- % visual injury Ob ([2]; applied alone, 20 g/ha): 60%
- % visual injury Ob ([3]; 20 g/ha): 60%
- % visual injury Ob ([4]; Compound A 20 g/ha): 85%
- % visual injury Ob ([4]; applied alone, 20 g/ha): 85%
- % visual injury Ob ([5]; Compound A 20 g/ha): 95%
- % visual injury Ob ([5]; applied alone, 20 g/ha): 95%
- % visual injury Ob ([6]; Compound A 20 g/ha): 5%
- % visual injury Ob ([6]; applied alone, 20 g/ha): 5%
- % visual injury Ob ([7]; Compound A 20 g/ha): 10%
- % visual injury Ob ([7]; applied alone, 20 g/ha): 10%
- % visual injury Ob ([8]; Compound A 20 g/ha): 95%
- % visual injury Ob ([8]; applied alone, 20 g/ha): 95%
- % visual injury Ob ([8]; applied alone, 40 g/ha): 100%
- % visual injury Ob ([9]; Compound A 20 g/ha): 97%
- % visual injury Ob ([9]; applied alone, 20 g/ha): 97%
- % visual injury Ob ([10]; Compound A 20 g/ha): 90%
- % visual injury Ob ([10]; applied alone, 20 g/ha): 90%
- % visual injury Ob ([11]; Compound A 20 g/ha): 93%
- % visual injury Ob ([11]; applied alone, 20 g/ha): 93%
- % visual injury Ob ([11]; applied alone, 40 g/ha): 100%
- % visual injury Ob ([12]; Compound A 20 g/ha): 95%
- % visual injury Ob ([12]; applied alone, 20 g/ha): 95%
- % visual injury Ob ([13]; Compound A 20 g/ha): 65%
- % visual injury Ob ([13]; applied alone, 20 g/ha): 65%
- % visual injury Ob ([14]; Compound A 20 g/ha): 0%
- % visual injury Ob ([14]; applied alone, 20 g/ha): 0%
- % visual injury Ob ([15]; Compound A 20 g/ha): 30%
- % visual injury Ob ([15]; applied alone, 20 g/ha): 30%
- % visual injury Ob ([16]; Compound A 20 g/ha): 0%
- % visual injury Ob ([16]; applied alone, 20 g/ha): 0%
- % visual injury Ob ([17]; Compound A 20 g/ha): 30%
- % visual injury Ob ([17]; applied alone, 20 g/ha): 30%
- % visual injury Ob ([17]; applied alone, 40 g/ha): 73%
- % visual injury Ob ([18]; 20 g/ha): 50%
- % visual injury Ob ([19]; Compound A 20 g/ha): 85%
- % visual injury Ob ([19]; applied alone, 20 g/ha): 95% and 85%
- % visual injury Ob ([20]; Compound A 20 g/ha): 0%
- % visual injury Ob ([20]; applied alone, 20 g/ha): 0%
- % visual injury Ob ([21]; Compound A 20 g/ha): 0%
- % visual injury Ob ([21]; applied alone, 20 g/ha): 0%
- % visual injury Ob ([22]; 20 g/ha): 25%
- % visual injury Ob ([22]; 40 g/ha): 23% and 30%
- % visual injury Ob ([23]; Compound A 20 g/ha): 25%
- % visual injury Ob ([23]; applied alone, 20 g/ha): 25%
- % visual injury Ob ([23]; applied alone, 40 g/ha): 25%
- % visual injury Ob ([24]; Compound A 20 g/ha): 13%
- % visual injury Ob ([24]; applied alone, 20 g/ha): 13%
- % visual injury Ob ([24]; applied alone, 40 g/ha): 55%
- % visual injury Ob ([25]; Compound A 20 g/ha): 88%
- % visual injury Ob ([25]; applied alone, 20 g/ha): 88%
- % visual injury Ob ([26]; Compound A 20 g/ha): 30%
- % visual injury Ob ([26]; applied alone, 20 g/ha): 30%
- % visual injury Ob ([27]; Compound A 20 g/ha): 100%
- % visual injury Ob ([27]; applied alone, 20 g/ha): 100%
- % visual injury Ob ([28]; Compound A 20 g/ha): 100%
- % visual injury Ob ([28]; applied alone, 20 g/ha): 100%
- % visual injury Ob ([29]; 20 g/ha): 0%
- % visual injury Ob ([29]; 40 g/ha): 17%

Compound: CCOC(=O)c1nc(C(Cl)(Cl)Cl)n(-c2ccc(Cl)cc2Cl)n1 [Fenchlorazole-ethyl, fenchlorazole-ethyl]
- % visual injury Ob ([3]; 10 g/ha): 0%
- % visual injury Ob ([3]; 20 g/ha): 0%
- % visual injury Ob ([3]; 40 g/ha): 0%
- % visual injury Ob ([18]; 10 g/ha): 0%
- % visual injury Ob ([18]; 20 g/ha): 0%
- % visual injury Ob ([18]; 40 g/ha): 0%
- % visual injury Ob ([19]; applied alone, 10 g/ha): 0%
- % visual injury Ob ([19]; applied alone, 20 g/ha): 0%
- % visual injury Ob ([19]; applied alone, 40 g/ha): 0%
- % visual injury Ob ([22]; 10 g/ha): 0%
- % visual injury Ob ([22]; 20 g/ha): 0%
- % visual injury Ob ([22]; 40 g/ha): 0%
- % visual injury Ob ([29]; 10 g/ha): 0%
- % visual injury Ob ([29]; 20 g/ha): 0%
- % visual injury Ob ([29]; 40 g/ha): 0%
